Laboratory results from PubChem BioAssay AID743357 (Broad Institute, 2014).
Calls of active or inactive are those of the source. The rule behind the calls is not given here.

Molecular target: BioA, adenosylmethionine-8-amino-7-oxononanoate aminotransferase (Mycobacterium tuberculosis)
Test: BioA aminotransferase inhibition, biochemical, coupled fluorescence displacement, 20-point, dry powder, dose response (AID 743357)
Conditions: coupled fluorescence displacement assay
[1] = measured here: test 2 replicate AC50
[2] = measured here: test 1 replicate AC50

SMILES: CN1c2ccc(-c3cccc(F)c3)cc2[C@H]2[C@H](CCN2C(=O)Cc2ccccc2)[C@H]1CO
- activity change, negative = inhibition (at 10 µM (top of the series)): inactive

SMILES: CCCNC(=O)N1CC[C@@H]2[C@@H](CO)N(C)c3ccc(-c4ccc(F)cc4)cc3[C@@H]21
- activity change, negative = inhibition (at 10 µM (top of the series)): inactive
- AC50 [1]: > 20000 nM

SMILES: CC(=O)c1ccc(N2CCN(C(=O)c3ccc(Cl)c(Cl)c3)CC2)cc1
- AC50: 217 nM
- AC50 [2]: 217 nM

SMILES: CN1c2ccc(-c3cccc(F)c3)cc2[C@H]2[C@H](CCN2C(=O)c2ccc3c(c2)OCO3)[C@@H]1CO
- activity change, negative = inhibition (at 10 µM (top of the series)): inactive

SMILES: CN1c2ccc(-c3ccc(F)cc3)cc2[C@H]2[C@H](CCN2C(=O)Cc2ccccn2)[C@H]1CO
- activity change, negative = inhibition (at 10 µM (top of the series)): inactive

SMILES: CC(=O)c1ccc(N2CCN(C(=O)c3ccc4c(c3C)OCO4)CC2)cc1
- AC50: 53.7 nM
- AC50 [2]: 53.7 nM

SMILES: CCCCCCCC(=O)N1CC[C@@H]2[C@@H](CO)N(C)c3ccc(-c4cccc(F)c4)cc3[C@@H]21
- activity change, negative = inhibition (at 10 µM (top of the series)): inactive

SMILES: O=C(c1ccc2c(c1)OCO2)N1CCN(c2ccc(C(F)(F)F)cc2)CC1
- activity change, negative = inhibition (at 10 µM (top of the series)): inactive
- AC50 [2]: > 20000 nM

SMILES: CC(=O)c1ccc(N2CCN(C(=O)c3ccccc3F)CC2)cc1
- AC50: 6400 nM
- AC50 [1]: 6400 nM

SMILES: CN1c2ccc(-c3cccc(F)c3)cc2[C@@H]2[C@@H](CCN2C(=O)c2ccc3c(c2)OCO3)[C@@H]1CO
- activity change, negative = inhibition (at 5.6 µM (top of the series)): inactive

SMILES: CC(=O)c1ccc(N2CCN(C(=O)c3ccc4snnc4c3)CC2)cc1
- AC50: 1850 nM
- AC50 [2]: 1850 nM

SMILES: COc1ccc(NC(=O)N2CC[C@@H]3[C@@H](CO)N(C)c4ccc(-c5ccc(F)cc5)cc4[C@@H]32)cc1
- activity change, negative = inhibition (at 10 µM (top of the series)): inactive

SMILES: CC(=O)c1ccc(N2CCN(C(=O)c3cc4c(cc3Cl)OCO4)CC2)cc1
- AC50: 6570 nM
- AC50 [2]: 6570 nM

SMILES: CC(=O)c1ccc(N2CCN(C(=O)c3ccc4c(c3)OCO4)CC2)cc1
- AC50: 49.7 nM
- AC50 [2]: 30.1 nM
- AC50 [1]: 69.2 nM

SMILES: COc1ccccc1C(=O)N1CCN(c2ccc(C(C)=O)cc2)CC1
- activity change, negative = inhibition (at 10 µM (top of the series)): inactive
- AC50 [1]: > 20000 nM

SMILES: CC(=O)c1ccc(N2CCN(C(=O)c3ccc4c(c3)OCO4)[C@H](C)C2)cc1
- AC50: 55.3 nM
- AC50 [1]: 55.3 nM

SMILES: CC(C)NC(=O)N1CC[C@@H]2[C@@H](CO)N(C)c3ccc(-c4ccc(F)cc4)cc3[C@@H]21
- activity change, negative = inhibition (at 10 µM (top of the series)): inactive
- AC50 [1]: > 20000 nM

SMILES: CC(=O)c1ccc(N2CCN(C(=O)Nc3ccc4c(c3)OCO4)CC2)cc1
- activity change, negative = inhibition (at 10 µM (top of the series)): inactive
- AC50 [2]: > 20000 nM

SMILES: CC(=O)c1ccc(N2CCN(C(=O)c3ccc4c(c3)OC(F)(F)O4)CC2)cc1
- activity change, negative = inhibition (at 10 µM (top of the series)): inactive

SMILES: CC(=O)c1ccc(N2CCN(C(=O)c3cc4c(cc3C)OCO4)CC2)cc1
- AC50: 1090 nM
- AC50 [2]: 1090 nM

SMILES: CC(=O)c1ccc(N2CCN(C(=O)c3ccc4ocnc4c3)CC2)cc1
- AC50: 198 nM
- AC50 [2]: 198 nM

SMILES: CNS(=O)(=O)c1ccc(N2CCN(C(=O)c3ccc4c(c3)OCO4)CC2)cc1
- activity change, negative = inhibition (at 10 µM (top of the series)): inactive

SMILES: CN1c2ccc(-c3ccc(F)cc3)cc2[C@H]2[C@H](CCN2C(=O)Nc2ccc(F)cc2)[C@H]1CO
- activity change, negative = inhibition (at 10 µM (top of the series)): inactive

SMILES: CC(=O)c1ccc(N2CCN(S(=O)(=O)c3ccc4c(c3)OCO4)CC2)cc1
- activity change, negative = inhibition (at 10 µM (top of the series)): inactive

SMILES: CC(=O)c1ccc(N2CC3(CN(C(=O)c4ccc5c(c4)OCO5)C3)C2)cc1
- activity change, negative = inhibition (at 10 µM (top of the series)): inactive

SMILES: CC(=O)c1ccc(N2CC3CC2CN3C(=O)c2ccc3c(c2)OCO3)cc1 (stereo not given)
- activity change, negative = inhibition (at 10 µM (top of the series)): inactive
- AC50 [2]: > 20000 nM

SMILES: COc1ccccc1NC(=O)N1CC[C@@H]2[C@@H](CO)N(C)c3ccc(-c4cccc(F)c4)cc3[C@@H]21
- activity change, negative = inhibition (at 10 µM (top of the series)): inactive

SMILES: CN1c2ccc(-c3cccc(F)c3)cc2[C@H]2[C@H](CCN2C(=O)Nc2ccccc2F)[C@H]1CO
- activity change, negative = inhibition (at 10 µM (top of the series)): inactive

SMILES: CN1c2ccc(-c3ccc(F)cc3)cc2[C@H]2[C@H](CCN2C(=O)Nc2cc(F)ccc2F)[C@H]1CO
- activity change, negative = inhibition (at 10 µM (top of the series)): inactive

SMILES: COC(=O)CCCCCCC(=O)N1CC[C@@H]2[C@@H](CO)N(C)c3ccc(-c4cccc(F)c4)cc3[C@@H]21
- activity change, negative = inhibition (at 10 µM (top of the series)): inactive
- AC50 [1]: > 20000 nM

SMILES: CC(=O)c1ccc(NCCNC(=O)c2ccc3c(c2)OCO3)cc1
- activity change, negative = inhibition (at 10 µM (top of the series)): inactive

SMILES: CC(=O)c1ccc(N2CCN(C(=O)c3cc4c(cn3)OCO4)CC2)cc1
- activity change, negative = inhibition (at 10 µM (top of the series)): inactive
- AC50 [2]: > 20000 nM

SMILES: CN1c2ccc(-c3ccc(F)cc3)cc2[C@H]2[C@H](CCN2C(=O)Cc2cccnc2)[C@H]1CO
- activity change, negative = inhibition (at 9 µM (top of the series)): inactive

SMILES: CC(=O)c1ccc(N2CCN(C(=O)c3ccc4c(c3)OC(C)(C)O4)CC2)cc1
- activity change, negative = inhibition (at 10 µM (top of the series)): inactive

SMILES: CN(C)S(=O)(=O)c1ccc(N2CCN(C(=O)c3ccc4c(c3)OCO4)CC2)cc1
- activity change, negative = inhibition (at 10 µM (top of the series)): inactive

SMILES: COc1cccc(NC(=O)N2CC[C@@H]3[C@@H](CO)N(C)c4ccc(-c5cccc(F)c5)cc4[C@@H]32)c1
- activity change, negative = inhibition (at 10 µM (top of the series)): inactive

SMILES: CC(=O)c1ccc(N2CCN(C(=O)c3ccccc3Cl)CC2)cc1
- AC50: 8240 nM
- AC50 [1]: 8240 nM

SMILES: CNC(=O)c1ccc(N2CCN(C(=O)c3ccc4c(c3)OCO4)CC2)cc1
- activity change, negative = inhibition (at 10 µM (top of the series)): inactive
- AC50 [1]: > 20000 nM

SMILES: CC(=O)c1ccc(N2CCN(C(=O)c3cccc4c3OCO4)CC2)cc1
- AC50: 1580 nM
- AC50 [2]: 1580 nM

SMILES: O=C(c1ccc2c(c1)OCO2)N1CCN(c2ccc(OC(F)(F)F)cc2)CC1
- activity change, negative = inhibition (at 10 µM (top of the series)): inactive

SMILES: COc1ccccc1NC(=O)N1CC[C@@H]2[C@@H](CO)N(C)c3ccc(-c4ccc(F)cc4)cc3[C@@H]21
- activity change, negative = inhibition (at 10 µM (top of the series)): inactive

SMILES: COCC(=O)N1CC[C@@H]2[C@@H](CO)N(C)c3ccc(-c4cccc(F)c4)cc3[C@@H]21
- AC50: 55.4 nM
- AC50 [1]: 55.4 nM

SMILES: CCC(=O)N1CC[C@@H]2[C@@H](CO)N(C)c3ccc(-c4ccc(F)cc4)cc3[C@@H]21
- AC50: 2820 nM
- AC50 [1]: 2820 nM

SMILES: CN1c2ccc(-c3cccc(F)c3)cc2[C@H]2[C@H](CCN2C(=O)Cc2cccnc2)[C@H]1CO
- activity change, negative = inhibition (at 10 µM (top of the series)): inactive
- AC50 [1]: > 20000 nM

SMILES: CN1c2ccc(-c3cccc(F)c3)cc2[C@@H]2[C@@H](CCN2C(=O)c2ccc3c(c2)OCO3)[C@H]1CO
- activity change, negative = inhibition (at 10 µM (top of the series)): inactive

SMILES: O=C(c1ccc2c(c1)OCO2)N1CCN(c2ccc(S(=O)(=O)C(F)(F)F)cc2)CC1
- activity change, negative = inhibition (at 10 µM (top of the series)): inactive

SMILES: COc1ccc(NC(=O)N2CC[C@@H]3[C@@H](CO)N(C)c4ccc(-c5cccc(F)c5)cc4[C@@H]32)cc1
- activity change, negative = inhibition (at 10 µM (top of the series)): inactive

SMILES: CC(=O)c1ccc(N2CCCN(C(=O)c3ccc4c(c3)OCO4)CC2)cc1
- AC50: 289 nM
- AC50 [2]: 289 nM

SMILES: COc1cc(C(=O)N2CCN(c3ccc(C(C)=O)cc3)CC2)cc2c1OCO2
- AC50: 181 nM
- AC50 [2]: 181 nM
